Assay results from the supplement of paper PMC10307832.

Columns and labels:
Experiment in all cases: relative viability (nuclei count vs DMSO), 5 days (fraction); higher = more cells survive
[1] = tested on: NCI-H441
How it was run: (§1)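 Lung cancer cell lines were seeded in 1536-well plates and dosed by pin tool the next day, with either a single drug or a fixed anchor-drug dose combined with five library-drug doses (not always all listed) spaced in √10 steps. Five days later, one step fixed the cells and stained their nuclei (final 0.05% Triton X-100, 1% formaldehyde, 1 ug/ml Hoechst), and nuclei were counted on 4× images. Relative viability is the nuclei count in treated wells divided by the count in vehicle wells, and each value is the median of duplicate plates.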

[2] = tested on: NCI-H322M
How it was run: as §1

[3] = tested on: NCI-H1975
How it was run: as §1

[4] = tested on: HOP-62
How it was run: as §1

[5] = tested on: HCC-15
How it was run: as §1

[6] = tested on: EPLC-272H
How it was run: as §1

[7] = tested on: EMC-BAC-2
How it was run: as §1

[8] = tested on: NCI-H2085
How it was run: as §1

[9] = tested on: NCI-H358
How it was run: as §1

[10] = tested on: HCC-78
How it was run: as §1

[11] = tested on: NCI-H2126
How it was run: as §1

[12] = tested on: NCI-H2023
How it was run: as §1

[13] = tested on: NCI-H1915
How it was run: as §1

[14] = tested on: UMC-11
How it was run: as §1

[15] = tested on: NCI-H1755
How it was run: as §1

[16] = tested on: CAL-12T
How it was run: as §1

[17] = tested on: NCI-H3122
How it was run: as §1

[18] = tested on: NCI-H1666
How it was run: as §1

[19] = tested on: COR-L 105
How it was run: as §1

[20] = tested on: ABC-1
How it was run: as §1

[21] = tested on: LXF-289
How it was run: as §1

COc1cc2nccc(Oc3ccc(NC(=O)Nc4cc(C)on4)c(Cl)c3)c2cc1OC [Tivozanib] + C[C@]1(O)C[C@@H](c2nc(-c3ccc4ccc(-c5ccccc5)nc4c3)c3c(N)nccn32)C1 [Linsitinib] (partner 1 µM)
relative viability ([1]; first compound 0.005 µM): 0.588
relative viability ([1]; first compound 0.01581 µM): 0.56
relative viability ([1]; first compound 0.05 µM): 0.559
relative viability ([1]; first compound 0.1581 µM): 0.481
relative viability ([1]; first compound 0.5 µM): 0.559
relative viability ([2]; first compound 0.005 µM): 0.942
relative viability ([2]; first compound 0.01581 µM): 0.961
relative viability ([2]; first compound 0.05 µM): 0.989
relative viability ([2]; first compound 0.1581 µM): 0.92
relative viability ([2]; first compound 0.5 µM): 0.825
relative viability ([3]; first compound 0.005 µM): 0.976
relative viability ([3]; first compound 0.01581 µM): 0.893
relative viability ([3]; first compound 0.05 µM): 0.956
relative viability ([3]; first compound 0.1581 µM): 0.784
relative viability ([3]; first compound 0.5 µM): 0.916
relative viability ([4]; first compound 0.005 µM): 0.87
relative viability ([4]; first compound 0.01581 µM): 0.929
relative viability ([4]; first compound 0.05 µM): 1.16
relative viability ([4]; first compound 0.1581 µM): 0.932
relative viability ([4]; first compound 0.5 µM): 0.988
relative viability ([5]; first compound 0.005 µM): 0.9
relative viability ([5]; first compound 0.01581 µM): 0.878
relative viability ([5]; first compound 0.05 µM): 0.9
relative viability ([5]; first compound 0.1581 µM): 0.875
relative viability ([5]; first compound 0.5 µM): 0.897
relative viability ([6]; first compound 0.005 µM): 1.1
relative viability ([6]; first compound 0.01581 µM): 1.14
relative viability ([6]; first compound 0.05 µM): 1.17
relative viability ([6]; first compound 0.1581 µM): 0.955
relative viability ([6]; first compound 0.5 µM): 1.12
relative viability ([7]; first compound 0.005 µM): 0.847
relative viability ([7]; first compound 0.01581 µM): 0.787
relative viability ([7]; first compound 0.05 µM): 0.844
relative viability ([7]; first compound 0.1581 µM): 0.782
relative viability ([7]; first compound 0.5 µM): 0.821
relative viability ([8]; first compound 0.005 µM): 0.917
relative viability ([8]; first compound 0.01581 µM): 0.854
relative viability ([8]; first compound 0.05 µM): 1.06
relative viability ([8]; first compound 0.1581 µM): 0.781
relative viability ([8]; first compound 0.5 µM): 0.877
relative viability ([9]; first compound 0.005 µM): 0.765
relative viability ([9]; first compound 0.01581 µM): 0.849
relative viability ([9]; first compound 0.05 µM): 0.718
relative viability ([9]; first compound 0.1581 µM): 0.695
relative viability ([9]; first compound 0.5 µM): 0.782
relative viability ([10]; first compound 0.005 µM): 0.53
relative viability ([10]; first compound 0.01581 µM): 0.492
relative viability ([10]; first compound 0.05 µM): 0.437
relative viability ([10]; first compound 0.1581 µM): 0.415
relative viability ([10]; first compound 0.5 µM): 0.451
relative viability ([11]; first compound 0.005 µM): 0.651
relative viability ([11]; first compound 0.01581 µM): 0.697
relative viability ([11]; first compound 0.05 µM): 0.734
relative viability ([11]; first compound 0.1581 µM): 0.52
relative viability ([11]; first compound 0.5 µM): 0.747
relative viability ([12]; first compound 0.005 µM): 0.612
relative viability ([12]; first compound 0.01581 µM): 0.669
relative viability ([12]; first compound 0.05 µM): 0.761
relative viability ([12]; first compound 0.1581 µM): 0.671
relative viability ([12]; first compound 0.5 µM): 0.715
relative viability ([13]; first compound 0.005 µM): 1.08
relative viability ([13]; first compound 0.01581 µM): 1.14
relative viability ([13]; first compound 0.05 µM): 1.12
relative viability ([13]; first compound 0.1581 µM): 1.07
relative viability ([13]; first compound 0.5 µM): 1.05
relative viability ([14]; first compound 0.005 µM): 1.08
relative viability ([14]; first compound 0.01581 µM): 1.01
relative viability ([14]; first compound 0.05 µM): 1.06
relative viability ([14]; first compound 0.5 µM): 0.997
relative viability ([15]; first compound 0.005 µM): 0.968
relative viability ([15]; first compound 0.01581 µM): 0.918
relative viability ([15]; first compound 0.05 µM): 1.05
relative viability ([15]; first compound 0.1581 µM): 1.02
relative viability ([15]; first compound 0.5 µM): 0.96
relative viability ([16]; first compound 0.005 µM): 0.761
relative viability ([16]; first compound 0.01581 µM): 0.666
relative viability ([16]; first compound 0.05 µM): 0.717
relative viability ([16]; first compound 0.1581 µM): 0.713
relative viability ([16]; first compound 0.5 µM): 0.816
relative viability ([17]; first compound 0.005 µM): 1.1
relative viability ([17]; first compound 0.01581 µM): 1.04
relative viability ([17]; first compound 0.05 µM): 1
relative viability ([17]; first compound 0.1581 µM): 1.19
relative viability ([17]; first compound 0.5 µM): 1.06
relative viability ([18]; first compound 0.005 µM): 0.748
relative viability ([18]; first compound 0.01581 µM): 0.856
relative viability ([18]; first compound 0.05 µM): 0.975
relative viability ([18]; first compound 0.1581 µM): 0.783
relative viability ([18]; first compound 0.5 µM): 0.876
relative viability ([19]; first compound 0.01581 µM): 1.25
relative viability ([19]; first compound 0.05 µM): 1.02
relative viability ([19]; first compound 0.1581 µM): 1.02
relative viability ([19]; first compound 0.5 µM): 0.904
relative viability ([20]; first compound 0.005 µM): 0.716
relative viability ([20]; first compound 0.01581 µM): 0.887
relative viability ([20]; first compound 0.05 µM): 0.676
relative viability ([20]; first compound 0.1581 µM): 0.745
relative viability ([20]; first compound 0.5 µM): 0.783
relative viability ([21]; first compound 0.005 µM): 0.974
relative viability ([21]; first compound 0.01581 µM): 0.929
relative viability ([21]; first compound 0.05 µM): 0.945
relative viability ([21]; first compound 0.1581 µM): 1.02
relative viability ([21]; first compound 0.5 µM): 0.983
